Experimental data as given in a melting point compilation (Tetko et al.; mined from patent text by program, amines drawn as free bases though some values may be those of a salt).

SMILES	melting point
C=CCc1c(O)ccc2ncccc12	162 to 164 °C
CCOC(=O)c1sc(-c2ccc3c(=O)n(CC(C)C)c(CNC(=O)OC(C)(C)C)c(-c4ccccc4)c3c2)nc1C	201 to 202 °C
CC1Cc2cc3c(cc2C(c2ccc([N+](=O)[O-])cc2)=NN1c1ncccn1)OCO3 (stereo not given)	261 to 263 °C
COc1ccccc1N1CCN(CC(O)COc2cc(C)c(OCc3ccccc3)c(C)c2)CC1 (stereo not given)	93 to 94 °C
CCCCc1nc2c(N)nc3cccnc3c2n1CCNC(=O)CC(C)CCC=C(C)C (stereo not given)	163 to 164 °C
COC(=O)C(=O)c1ccc(OCCCC(=O)c2ccc3ccccc3c2)cc1	86 to 87 °C
Oc1ccc(C2Oc3ccccc3C=C2c2ccc(OC3CCCCO3)cc2)cc1 (stereo not given)	110 °C
O=Cc1ccc(=O)[nH]c1	222 to 224 °C
CCNc1ccc(S(=O)(=O)Nc2onc(C)c2C)cc1	123 °C
Oc1ccc(Br)cc1-c1ccc2nonc2c1	179 to 181 °C
O=C(Nc1noc2ccccc12)N1CCN(c2nc(-c3ccccc3)no2)CC1	215 to 216 °C
COc1cc2c3c(c1)c(=O)c(Cc1cccnc1)cn3-c1ccc(Br)cc1S2	157 to 159 °C
CCCCCc1c(-c2ccc3cc(OC)ccc3c2)n(Cc2ccccc2)c2ccccc12	76 to 80 °C
CNC(=O)Nc1nc(C(C)c2ccc(-c3ccccc3)c(F)c2)cs1 (stereo not given)	208 to 209 °C
COc1cc(OC)c(-c2cc3ccccc3s2)cc1C=CC(=O)c1cc(OC)c(O)c(OC)c1	85 to 105 °C
Cc1nnc2n1-c1ccc([N+](=O)[O-])cc1C(c1ccccc1Cl)=NC2	231 to 233 °C
O=c1c2cnc(-c3ccccc3)nc2sn1CCc1ccccn1	132 to 133 °C
CN(C)c1ccc(C(=O)c2ccc(N)cc2)cc1	150 °C
COC(=O)c1sc2ccc(Br)cc2c1-c1ccccc1	125 to 126 °C
O=C1Cc2cc(O)cc(O)c2C2CCCCC12 (stereo not given)	220 to 223 °C
CCOC(=O)c1c(OCC)nsc1NC(=O)Oc1ccccc1	130 °C
Nc1ncc(-c2ccccc2)c(N)n1	162 to 164 °C
Cn1c(/C=C/C=O)c(-c2ccccc2)c2ccccc2c1=O	228 °C
COC1=CC(=NC2CCCCC2)c2ccccc2C1=O	145 to 147 °C
Cc1nnc(-c2ccc3occ(-c4ccc(OCCS(C)(=O)=O)cc4)c3c2)o1	132 to 133 °C

SMILES	melting point
COc1cccc2c1C(=O)c1nc(-c3ccccc3)sc1C2=O	245 °C
c1cc(-n2ccnc2)cc(-n2cnc3cc(-c4ccon4)ccc32)c1	230 to 234 °C
CC(C)n1nc(-c2c(Oc3ccccc3)nc(N)nc2-c2ccccc2)ccc1=O	218 to 221 °C
Cn1ncc(SCc2ccccc2)c(Cl)c1=O	102 to 104 °C
CNC(=O)C(Cc1ccc(OC)cc1)NC(=O)CC(S)C(CC(C)C)C(N)=O (stereo not given)	221 to 225 °C
CCc1c(Cc2cc(C)cc(C)c2)n(COCCCCO)c(=O)[nH]c1=O	101 to 103 °C
CCCNC(=O)C(C)Cc1ccc2cccc(Cc3ccc(C(=O)NS(=O)(=O)c4ccccc4)cc3OC)c2c1 (stereo not given)	214 to 218 °C
C(=Cc1nc2ccccc2o1)c1ccccc1	78 to 79 °C
CCCc1c(OCCCCCCc2cc(C)c(O)c(O)c2C)ccc(C(=O)OCC)c1O	61 to 64 °C
CNCC(O)c1ccc(C)o1 (stereo not given)	40 to 45 °C
COc1ccc(Cn2c(=O)oc(=O)c3cc(Cl)cnc32)cc1	173 °C
O=C(O)Cc1cc(C=Cc2ccc(C(=O)O)cc2)ccc1O	> 260 °C
CC(C)(C)OC(=O)N1CCC(NCc2ccccc2N)CC1	79 to 81 °C
O=C(Nc1ccccc1)c1cccc(Oc2ccccc2)c1	111 to 112 °C
Cc1cccc(C)c1-c1cc2cnc(N)nc2n(C)c1=N	197 to 198 °C
N#CCN1CCN(c2cccccc2=O)CC1	133 to 135 °C
CC(O)CN1CCN(c2cccccc2=O)CC1 (stereo not given)	92 to 93 °C
Cc1ccc(-c2nc(Cc3cc4cc(CCl)ccc4o3)c(C)o2)cc1	145 to 146 °C
COC(=O)CCc1sc(Sc2ccc(O)cc2)nc1-c1ccccc1	153 to 155 °C
CC(C)(C)c1ccc(C2CC(=O)c3ccccc3O2)cc1 (stereo not given)	103 to 104 °C
CC(C)(C(=O)O)c1ccc2cc(OCc3ccc4ccccc4n3)ccc2c1	207 to 209 °C
CC(C)(NC(=O)CCn1cnc(C=O)c1)c1ccc(Cl)cc1	151 to 153 °C
CCCc1nc(C(C)(C)O)c(C(=O)OC2OC(=O)c3ccccc32)n1Cc1ccc(-c2ccccc2-c2nnn[nH]2)cc1 (stereo not given)	168 to 170 °C
CCOC(=O)c1ccc(NC(=O)NC2CN(C3CCCCC3)c3ccccc3N(CC(=O)c3cccs3)C2=O)cc1 (stereo not given)	219 to 220 °C
CCOc1ccc(Br)c(F)c1Cl	65.4 to 66.1 °C

SMILES	melting point
COc1nc2cc(Cl)cc(C)c2nc1OC	94 to 96 °C
CCCn1c(=O)c2c(nc(C=Cc3cc(OC)c(OC)c(OC)c3S(=O)(=O)O)n2C)n(CCC)c1=O	248 to 250 °C
CCOC(=O)C(=O)Nc1cccc(C#N)c1	149 to 150 °C
CC1(C)CC(=C(c2ccc(O)cc2)c2ccc(-c3cccc(CO)c3)cc2)CC(C)(C)C1	197 to 198 °C
Nc1nc2c(sc(=O)n2Cc2ccccc2)c(=O)[nH]1	> 320 °C
Cc1cn(C2OC(COC(=O)c3ccccc3)C(OC(=O)c3ccccc3)C2OC(=O)c2ccccc2)c(=O)[nH]c1=O (stereo not given)	90 °C
O=[N+]([O-])c1c(OCc2ccccc2)ccnc1F	96 to 98 °C
O=C(NCCO)c1cccc(-c2cccc3c2CC(Cc2cccc(C(F)(F)F)c2)O3)c1 (stereo not given)	120 to 121 °C
S=c1ncn(-c2ccc(Cl)cc2)[nH]1	222 to 224 °C
CCC(CC)CNC(=O)c1ccc(CN2C(=O)C3(COc4cc5c(cc43)CCO5)c3ccccc32)cc1 (stereo not given)	211 to 213 °C
CC(=Cc1ccc(OCCCN(C)C)cc1)C(=O)O	> 190 °C
CC(C#CCOc1cccc(Oc2cccnc2)c1)N(O)C(N)=O (stereo not given)	131 to 132 °C
CON=C(C(C)=C(ON)c1ccccc1C(=NOC)C(=O)OC)c1ccc(F)cc1F	110 to 119 °C
Cc1c(NC(=O)c2ccc(-c3cc4ccccc4o3)cc2F)ccc2cc(CN3CCCC3)cnc12	202 to 203 °C
O=C(O)CCc1c(C(=O)O)[nH]c2cc(Br)ccc12	234 to 235 °C
COc1ccc(N2C(=O)[C@@H](OC(C)=O)[C@H]2c2ccccc2)cc1 (relative stereo)	163 °C
CC(=NC(=Nc1ccccc1)N1CCOCC1)NC(C)C	142 to 145 °C
COc1ccc(C(=O)C=C2c3ccccc3C(=O)c3ccccc32)cc1OC	160 °C
Cc1c(CC2CCc3c(c4ccccc4n3Cc3ccccc3)C2=O)ncn1C(c1ccccc1)(c1ccccc1)c1ccccc1 (stereo not given)	78 to 80 °C
Cc1nc2cc(NC(=O)c3cc4cc(C(F)(F)F)ccc4n3Cc3cccc(F)c3)ccn2c1C	280 to 281 °C
N#Cc1ccc(Cl)c(C=NO)c1	191 to 193 °C
O=C1NCc2cccnc2N1c1cccc(I)c1	175 to 177 °C
COC(=O)COc1cccc2c1CCC(n1nc(-c3c(-c4ccccc4)nn4ccccc34)ccc1=O)C2=O (stereo not given)	175 to 176 °C
COc1ccc(C(=O)c2c(F)cccc2F)cc1	122 to 124 °C
CC(C)CCS(=O)(=O)NC(=O)/C=C/c1cc(OCC2CC2)nn1Cc1ccc(C(F)(F)F)cc1Cl	156 to 158 °C

SMILES	melting point
Clc1ccc2c(c1)N=C(NCc1cccnc1)c1ccccc1S2	152 to 153 °C
O=S(=O)(c1ccc(Nc2nccc(Nc3ccc(F)cc3)n2)cc1)N1CCC(C(O)c2ccncc2F)CC1 (stereo not given)	140 °C
CC(C)=NNc1cc2c(nn1)CCN(C(=O)CC(c1ccccc1)c1ccccc1)C2	172 to 175 °C
O=C(O)CCC(O)c1ccc(-c2ccccc2)c(F)c1 (stereo not given)	133 to 135 °C
O=C(NCCC12CCC(=O)N1C(=O)CC2)OCc1ccccc1	118 to 120 °C
Cc1cc(C)c2c(n1)N(CCN(C)C)C(=O)N(C)C2	105 to 107 °C
CCCCCCCCCCCCCCCCCCCCOC(=O)Nc1ccc(NC(=O)NS(=O)(=O)c2ccc3ccccc3c2)cc1	181 °C
CCc1cc(CNc2nc3ccccc3o2)c(=O)[nH]c1C	211 to 213 °C
CCS(=O)(=O)NC(=O)CCCCC1CCSS1 (stereo not given)	98 to 100 °C
CC(C)(C)Nc1c(NCc2cccc(OC(F)(F)F)c2)c(=O)c1=O	210 to 212 °C
O=C1Nc2ccc(F)cc2C(C#Cc2ccccn2)(C(F)(F)F)N1 (racemic)	155 °C
CN(C)C(=O)NCC1(C)OCCc2c1[nH]c1ccccc21 (stereo not given)	153 to 155 °C
Nc1cccc(N2C(=O)c3ccc(N)cc3C2=O)c1	228 to 231 °C
N#Cc1c(Cc2ccccc2)nn(C2CCCC2)c1NC(=O)c1ccncc1	189 to 191 °C
CNC(=O)Nc1nnc(C(F)(F)F)s1	192 to 194 °C
O=[N+]([O-])c1ccc(F)c(-c2cncnc2)c1F	78 to 80 °C
Cc1ccc(C)c(OCCCC(C)(C)C(=O)Nc2c(F)cc(F)cc2F)c1	82 to 83 °C
COCC1COc2cc3ncnc(Nc4cc(C)cc(C)c4)c3cc2O1 (stereo not given)	268 to 270 °C
COc1cc(-c2ccccc2)nc(-c2ccc(C)cc2)n1	99 to 100 °C
N#CCc1ccc([N+](=O)[O-])c(OCc2ccccc2)c1	73 to 85 °C
Cc1ccc(-c2csc(-c3ccc(C(=O)O)cc3)n2)cc1	289 to 290 °C
CC(C)c1ccc(N(Cc2ccc(N(C)C)cc2)C(=O)Nc2c(C(C)C)cccc2C(C)C)cc1	203 to 206 °C
CC(=O)Oc1cccc(C(=O)N[C@@H](Cc2ccccc2)[C@H](OC(C)=O)C(=O)O)c1C	152 to 154 °C
CCCCCC(=O)NCCCC(=NNC(N)=S)c1ccccc1	125 to 127 °C
CC(=O)c1cc2c(Sc3ccc(C)cc3)cncc2s1	134 to 138 °C
